This is an account of results in article PMC6525029 (ACS synthetic biology, 2019).

For one assay, the target named is αvβ3 integrin (Homo sapiens, UniProt P05106+P06756). In words: Fluorescence polarization. It is filed as binding.
The next assay addresses T1, αvβ3 integrin, P06756.
T1 chain 1: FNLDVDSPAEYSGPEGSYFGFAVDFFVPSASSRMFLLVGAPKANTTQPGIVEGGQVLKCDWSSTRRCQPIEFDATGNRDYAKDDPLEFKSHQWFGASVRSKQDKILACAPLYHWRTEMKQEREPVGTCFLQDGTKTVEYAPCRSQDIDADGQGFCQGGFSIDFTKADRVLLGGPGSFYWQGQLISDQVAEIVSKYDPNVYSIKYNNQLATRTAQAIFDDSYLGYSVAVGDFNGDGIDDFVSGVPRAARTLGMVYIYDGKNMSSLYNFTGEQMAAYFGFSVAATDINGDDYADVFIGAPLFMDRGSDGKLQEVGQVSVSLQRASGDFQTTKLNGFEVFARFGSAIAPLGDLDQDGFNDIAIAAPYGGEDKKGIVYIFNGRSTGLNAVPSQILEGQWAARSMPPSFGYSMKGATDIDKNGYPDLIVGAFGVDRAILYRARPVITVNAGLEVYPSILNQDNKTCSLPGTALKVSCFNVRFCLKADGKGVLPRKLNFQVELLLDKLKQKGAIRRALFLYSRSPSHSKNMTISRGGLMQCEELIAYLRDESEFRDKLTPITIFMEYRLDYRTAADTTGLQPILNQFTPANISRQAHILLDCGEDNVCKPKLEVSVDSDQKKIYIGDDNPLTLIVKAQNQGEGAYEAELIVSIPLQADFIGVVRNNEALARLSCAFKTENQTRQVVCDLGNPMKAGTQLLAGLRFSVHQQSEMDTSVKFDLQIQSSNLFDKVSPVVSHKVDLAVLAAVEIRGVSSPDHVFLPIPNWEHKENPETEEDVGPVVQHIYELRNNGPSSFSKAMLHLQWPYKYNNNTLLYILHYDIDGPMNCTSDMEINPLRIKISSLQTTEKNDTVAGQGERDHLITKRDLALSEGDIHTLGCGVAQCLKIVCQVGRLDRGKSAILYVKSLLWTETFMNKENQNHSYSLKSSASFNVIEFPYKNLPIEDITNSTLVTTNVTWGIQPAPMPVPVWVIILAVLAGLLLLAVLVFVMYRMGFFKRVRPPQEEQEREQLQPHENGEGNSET
T1 chain 2: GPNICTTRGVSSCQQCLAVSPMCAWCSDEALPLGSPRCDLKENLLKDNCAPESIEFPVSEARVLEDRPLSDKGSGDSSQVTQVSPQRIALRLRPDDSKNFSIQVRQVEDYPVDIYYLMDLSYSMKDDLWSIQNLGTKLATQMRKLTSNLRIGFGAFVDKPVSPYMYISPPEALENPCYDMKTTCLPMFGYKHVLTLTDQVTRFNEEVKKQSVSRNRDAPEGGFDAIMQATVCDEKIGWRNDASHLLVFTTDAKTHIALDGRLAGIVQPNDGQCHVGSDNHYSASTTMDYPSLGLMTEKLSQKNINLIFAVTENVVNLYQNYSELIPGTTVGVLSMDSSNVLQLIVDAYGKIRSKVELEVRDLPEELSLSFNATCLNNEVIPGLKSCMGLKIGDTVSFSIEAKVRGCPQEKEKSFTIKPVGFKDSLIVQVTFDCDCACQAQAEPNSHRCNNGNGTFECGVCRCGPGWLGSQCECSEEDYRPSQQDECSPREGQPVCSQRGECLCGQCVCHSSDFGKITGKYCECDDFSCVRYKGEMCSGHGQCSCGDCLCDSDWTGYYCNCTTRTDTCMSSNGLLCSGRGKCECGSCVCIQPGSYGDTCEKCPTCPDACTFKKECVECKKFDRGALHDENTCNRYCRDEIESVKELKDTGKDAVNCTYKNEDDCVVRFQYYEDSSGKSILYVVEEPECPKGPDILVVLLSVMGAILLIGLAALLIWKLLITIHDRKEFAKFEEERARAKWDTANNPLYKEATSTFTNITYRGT
In words: fluorescence polarisation. (In general: Fluorescence polarisation rises when a labelled molecule tumbles more slowly, as on binding a larger partner.)

As a reminder, the Ki is the dissociation constant of the complex between target and ligand, obtained from inhibition or displacement. The molecule `CSCC[C@H](NC(=O)[C@H]1CSC[C@H](NC(=O)[C@H](C)NC(=O)[C@H](C)N)C(=O)N[C@@H](Cc2c[nH]cn2)C(=O)N[C@@H](CCCNC(=N)N)C(=O)NCC(=O)N[C@@H](CC(=O)O)C(=O)N2CCC[C@H]2C(=O)N1)C(=O)N1CCC[C@H]1C(=O)N1CCC[C@H]1C(=O)N[C@@H]1CSC[C@@H](C(=O)O)NC(=O)[C@H](CCC(=O)O)NC(=O)CNC(=O)[C@H](CCC(=O)O)NC(=O)[C@H](Cc2c[nH]c3ccccc23)NC(=O)[C@H](Cc2ccc(O)cc2)NC1=O` [Pcn2.8(5RGD)] displayed an inhibition constant (Ki) on αvβ3 integrin greater than 2000 nM. Further, on αvβ3 integrin (FP competition experiment, Figure 5 legend), the “binding to the αvβ3 integrin (in words)” value is reported as “poor binding”.

In the assay with αvβ3 integrin, P06756, CHNHAPSMPPSYWRGDC (modifications not checked) [linear/unmodified Pcn2.8(16RGD) core peptide] displayed an inhibition constant Ki of 18 nM.
